Data taken from patent US7884247B2, “Salt of dimethylaminomethyl-phenyl-cyclohexane and crystalline forms thereof” (Gruenenthal GmbH, priority 2005, dated 2011).

What was measured:
[1] = Water absorption by Dynamic Vapour Sorption (Example E6); format: physicochemical; conditions: 25° C.; for Crystalline form at the end of the DVS measuring cycle: maleate; for Water absorption: DVS
Protocol: (§1) Water absorption is determined by means of dynamic water vapour absorption (Dynamic Vapour Sorption, DVS) using apparatus DVS-1 from Surface Measurement System Ltd. The sample is placed in a platinum crucible at the tip of a microchemical balance. Then the sample is firstly equilibrated at 50% relative atmospheric humidity and then subjected to a predefined measuring program. The temperature is 25° C. The change in weight of the sample is determined.

[2] = Storage under elevated atmospheric humidity, samples investigated by Raman spectroscopy; format: physicochemical; conditions: room temperature, 75% relative atmospheric humidity
Description: The amorphous form according to Example B1 is stored at room temperature and 75% relative atmospheric humidity and samples are investigated after 2 days, 1, 2, 3, 4 and 8 weeks using Raman spectroscopy. […] The same mixture is still observed after 8 weeks.
The maleate produced according to Example A1 is stored at room temperature and 75% relative atmospheric humidity and samples are investigated after 3 days, 1, 2, 3, 4, 8 and 10 weeks using Raman spectroscopy.
The crystalline form B produced according to Example D1 is stored at room temperature and 75% relative atmospheric humidity and samples are investigated after 3 days, 1, 2, 3, 4 and 8 weeks using Raman spectroscopy.
FT Raman spectra are recorded using a Bruker RFS 100 FT-Raman system, which is operated with an Nd:YAG laser (wavelength 1064 nm) and a germanium detector cooled with liquid nitrogen. For each sample, 64 scans are accumulated with a resolution of 2 cm^−1. In general, a laser power of 100 mW is used.

[3] = Damp storage and drying of maleate and hydrochloride (XRD, DSC, dry weight, Karl-Fischer water content); format: physicochemical; conditions: for Change in crystalline form by X-ray diffraction pattern: after damp storage (25° C., 75% and 95% R.H., 7 days) and drying (50° C., vacuum, 7 days)
Protocol: Maleate and hydrochloride according to Example E8 are stored firstly at 25° C. and 75% and 95% relative atmospheric humidity for 7 days and thereafter are dried for 7 days in the drying cabinet at 50° C. under a vacuum. Before storage begins, X-ray diffraction patterns (XRD) are recorded, DSC performed to determine transition points (Tp), dry weight (DW) and the Karl-Fischer water content (WC) are determined and the same values again after damp storage and drying. The X-ray diffraction patterns show no change in crystalline forms A and D after damp storage and drying. The initial vales for the hydrochloride are Tp=116.27° C., DW=6.35% and WC 8.00%. The initial values for the maleate are Tp=170.4° C. and 179.85° C., DW=0 and WC=0.2%. The results are given in Tables 3 (75% relative atmospheric humidity) and 4 (95% relative atmospheric humidity).

[4] = General properties stated in the description (solubility, hygroscopicity)
[5] = Stability under grinding conditions (trituration, ball mill); format: physicochemical
Protocol: The maleate produced according to Example A1 is triturated with a pestle in a mortar for 5 minutes. […] Amorphous fractions are not observed.
Crystalline form B according to Example D1 is triturated with a pestle in a mortar for 5 minutes.
The maleate produced according to Example A1 is introduced into an agate ball mill (Retsch MM200 mixing mill with 5 mm agate ball) and ground at 20 Hz and room temperature for 180 minutes. […] Amorphous fractions are not observed.
The procedure is carried out in accordance with Example E4c) with crystalline form B according to Example D1.

[6] = Stability under pressure (tablet pressing); format: physicochemical; conditions: tablet press, vacuum, 100 MPa, 60 minutes
Protocol: The maleate produced according to Example A1 is introduced into a tablet press and pressed under a vacuum at a pressure of 100 MPa for 60 minutes to form a tablet.
The procedure is carried out in accordance with Example E5a) with crystalline form B according to Example D1.

[7] = Stability at elevated temperature in open and closed vessels (HPLC, FT Raman); format: physicochemical
Protocol: The crystalline forms are stored in open and closed vessels and, after a predetermined time, possible changes are measured chromatographically (HPLC) as stability parameters.

[8] = Water absorption of maleate and hydrochloride by DVS (Example E8, comparison); format: physicochemical; conditions: 25° C.
Protocol: as §1, with “determined after a stepwise increase in relative atmospheric humidity by 10% steps up to 90%.” for “determined.”

[9] = Storage of amorphous form at room temperature and 20% or 90% atmospheric humidity for 24 hours; format: physicochemical; conditions: 20 mg, room temperature
[10] = 75% R.H. storage, then dried 7 days at 50° C. under vacuum
[11] = 95% R.H. storage, then dried 7 days at 50° C. under vacuum
[12] = after damp storage, 25° C., 75% relative atmospheric humidity, 7 days
[13] = after damp storage, 25° C., 95% relative atmospheric humidity, 7 days
[14] = 40° C./75% R.H., 1 week, maleate
[15] = 60° C. (closed), 1 week, maleate
[16] = 60° C. (closed), 4 weeks, maleate
[17] = 60° C./75% R.H., 4 weeks, maleate

Row | SMILES | Crystalline form at the end of the DVS measuring cycle [1] | Water absorption ([1]; measuring cycle) | Tp [3, 10] [°C] | WC [3, 10] [%] | WC [3, 11] [%] | Change in crystalline form by X-ray diffraction pattern [3] | Tp [3, 12] [°C] | WC [3, 12] [%] | WC [3, 13] [%] | DW (dry weight) ([3]; initial value, before storage) [%] | WC (Karl-Fischer water content) ([3]; initial value, before storage) [%] | Hygroscopicity [4] | Solubility in polar solvents [4] | HPLC [7, 14] [%] | HPLC [7, 15] [%] | HPLC [7, 16] [%] | HPLC [7, 17] [%] | HPLC ([7]; −18° C. (reference), 4 weeks) [%] | Crystalline form found by Raman spectroscopy after storage ([2]; after 8 weeks, maleate) | further results
1 | CN(C)C[C@@H]1CCCC[C@H]1c1cccc(O)c1.O=C(O)/C=C\C(=O)O [Crystalline form A, (+)-(1R,2R)-3-[2-(dimethylamino)methyl-(cyclohex-1-yl)]-phenol maleate] | unchanged crystalline form A | approx. 0.2 wt. % | 165.33 | 0.20 | 0.50 | no change | 165.41 | 0.20 | 0.20 | 0 | 0.2 | non-hygroscopic | very good | 100.2 | 100.2 | 100.5 | 100.3 | 100 |  | Crystalline form found by Raman spectroscopy after storage ([2]; after 10 weeks): virtually unchanged; Amorphous fractions after grinding ([5]; agate ball mill, 20 Hz, room temperature, 180 minutes): not observed; Crystalline form after grinding ([5]; agate ball mill, 20 Hz, room temperature, 180 minutes, listed as Example A1, maleate): unchanged form; Amorphous fractions after trituration ([5]; pestle in a mortar, 5 minutes): not observed; Crystalline form after trituration ([5]; pestle in a mortar, 5 minutes, listed as Example A1, maleate): unchanged form; Crystalline form after tablet pressing ([6]; listed as Example A1, maleate): unchanged form; Stability at elevated temperature (summary) ([7]; storage in open and closed vessels): very stable with regard to chemical stability and crystal shape; Release of the absorbed moisture ([8]; at approx. 10% relative atmospheric humidity): released again completely; Water absorption ([8]; relative atmospheric humidity raised in 10% steps up to 90%): 0.06%
2 | CN(C)C[C@@H]1CCCC[C@H]1c1cccc(O)c1.O=C(O)/C=C\C(=O)O [amorphous form, (+)-(1R,2R)-3-[2-(dimethylamino)methyl-(cyclohex-1-yl)]-phenol maleate] | mixture of crystalline forms A and B |  |  |  |  |  |  |  |  |  |  |  |  |  |  |  |  |  | same mixture | Water absorption ([1]; up to approx. 33% relative atmospheric humidity): approx. 2.2 wt. %; Crystalline form found by Raman spectroscopy after storage ([2]; after 2 days): mixture of crystalline forms A and B; Form obtained after storage ([9]; 20% atmospheric humidity): mixture of crystalline forms A and B; Form obtained after storage ([9]; 90% atmospheric humidity): only crystalline form A
3 | CN(C)C[C@@H]1CCCC[C@H]1c1cccc(O)c1.Cl [Hydrochloride, (+)-(1R,2R)-3-[2-(dimethylamino)methyl-(cyclohex-1-yl)]-phenol hydrochloride] |  |  | 113.83 | 6.00 | 6.60 | no change | 116.22 | 8.50 | 8.50 | 6.35 | 8.00 | decidedly hygroscopic |  |  |  |  |  |  |  | DW [3, 10]: 6.12%; DW [3, 11]: 6.74; Tp [3, 11]: 114.47 °C; DW [3, 12]: 5.92%; DW [3, 13]: 7.84%; Tp [3, 13]: 116.52 °C; Tp (transition point, DSC) ([3]; initial value, before storage): 116.27 °C; Water absorption altogether ([8]; further increase to 90% relative atmospheric humidity): approx. 5 wt. %; Water absorption ([8]; relative atmospheric humidity increased to approx. 75%): approx. 2 wt. %; Water released on desorption altogether ([8]; relative atmospheric humidity lowered in 10% steps): 8.5%
4 | CN(C)C[C@@H]1CCCC[C@H]1c1cccc(O)c1.O=C(O)/C=C\C(=O)O [Crystalline form B, (+)-(1R,2R)-3-[2-(dimethylamino)methyl-(cyclohex-1-yl)]-phenol maleate] | mixture of crystalline forms A and B | approx. 0.2 wt. % |  |  |  |  |  |  |  |  |  |  | very good | 100.3 | 100.6 | 100.9 | 101.1 | 100 | virtually unchanged | Crystalline form after grinding ([5]; agate ball mill, 20 Hz, room temperature, 180 minutes, maleate): mixture of crystalline forms A and B; Crystalline form after trituration ([5]; pestle in a mortar, 5 minutes, maleate): mixture of crystalline forms A and B; Crystalline form after tablet pressing ([6]; maleate): mixture of crystalline forms A and B; FT Raman (determination of crystalline form) ([7]; 40° C./75% R.H., 1 week): A and B; FT Raman (determination of crystalline form) ([7]; 60° C. (closed), 1 week): A and B; FT Raman (determination of crystalline form) ([7]; 60° C. (closed), 4 weeks): A and B; FT Raman (determination of crystalline form) ([7]; 60° C./75% R.H., 4 weeks): A and B; FT Raman (determination of crystalline form) ([7]; −18° C. (reference), 4 weeks): A and B
